Experimental data published in article PMC12150283, “Synthesis of new Ag(I) and Cd(II) hydrozanomide-based complexes with antibacterial and anticancer properties” (RSC Advances, 2025).

Legend:
[1] = system: Bacillus cereus ŁOCK 0807; test: MIC determination; type: cell-based; conditions: Bacillus cereus ŁOCK 0807; 18 h
Method: (§1) The antibacterial activity of tested samples was assessed against both gram-positive bacteria (Staphylococcus aureus ATCC 25923, Staphylococcus aureus ATCC 6538, Staphylococcus epidermidis ATCC 12228, Enterococcus faecalis ATCC 29212, Listeria monocytogenes ATCC 19115, Bacillus subtilis ATCC 6633, Bacillus cereus ATCC 10876) and gram-negative bacteria (Escherichia coli ATCC 10530, Salmonella typhimurium ATCC 14028). Antibacterial properties were evaluated using both the dilution method (employing DMSO and 96-well plates) and the diffusion-well method (using Mueller Hinton Agar, Merck, Germany).
(§2) The minimum inhibitory concentrations (MICs) of the tested samples were evaluated against a panel of reference microorganisms obtained from the American Type Culture Collection (ATCC), including Gram-negative bacteria (Escherichia coli ATCC 10530, Salmonella typhimurium ATCC 14028), and Gram-positive bacteria (Staphylococcus aureus ATCC 25923, Staphylococcus aureus ATCC 6538, Staphylococcus epidermidis ATCC 12228, Enterococcus faecalis ATCC 29212, Listeria monocytogenes ATCC 19115, Bacillus subtilis ATCC 6633), and one strain (Bacillus cereus ŁOCK 0807) obtained from the Pure Culture of Industrial Microorganisms of the Institute of Fermentation Technology and Microbiology ŁOCK 105 (Łódź, Poland).
(§3) The microorganism cultures with a density of 1.5 × 10^8 CFU mL^−1 (corresponding to a McFarland standard of 0.5) were plated on Mueller–Hinton Agar (Merck, Germany) following the procedures recommended by the European Committee on Antimicrobial Susceptibility Testing (EUCAST).[47] Wells measuring 10 mm in diameter were cut into the medium. The tested compounds were dissolved in a DMSO solution, which was recommended due to their chemical structures. Subsequently, 100 μL of prepared solutions containing the tested compounds at concentrations ranging from x μg mL^−1 to x μg mL^−1 were added to each well. The plates were incubated at 30 °C (for Bacillus subtilis and Bacillus cereus) or 37 °C (for other bacteria) for 18 hours. After incubation, the minimum inhibitory concentration (MIC value) was determined (the lowest concentration of the tested compounds that prevents bacterial growth) and expressed in μg mL^−1. The experiment was conducted in three independent replicates. Ciprofloxacin (Sigma Aldrich, Saint Louis, MO, USA) was used as a reference antimicrobial agent against Gram-negative bacteria, while vancomycin (Sigma Aldrich, Saint Louis, MO, USA) was used as a reference antimicrobial agent against Gram-positive bacteria.

[2] = system: Bacillus subtilis ATCC 6633; test: MIC determination; type: cell-based; conditions: 18 h
Method: as §1, §2, §3

[3] = system: Enterococcus faecalis ATCC 29212; test: MIC determination; type: cell-based; conditions: E. faecalis ATCC 29212; 18 h
Method: as §1, §2, §3

[4] = system: Escherichia coli ATCC 10530; test: MIC determination; type: cell-based; conditions: Escherichia coli ATCC 10530; 18 h
Method: as §1, §2, §3

[5] = system: Listeria monocytogenes ATCC 19115; test: MIC determination; type: cell-based; conditions: Listeria monocytogenes ATCC 19115; 18 h
Method: as §1, §2, §3

[6] = system: Salmonella typhimurium ATCC 14028; test: MIC determination; type: cell-based; conditions: S. typhimurium ATCC 14028, 18 h
Method: as §1, §2, §3

[7] = system: Staphylococcus aureus ATCC 25923; test: MIC determination; type: cell-based; conditions: S. aureus ATCC 25923, 18 h
Method: as §1, §2, §3

[8] = system: Staphylococcus aureus ATCC 6538; test: MIC determination; type: cell-based; conditions: S. aureus ATCC 6538; 18 h
Method: as §1, §2, §3

[9] = system: Staphylococcus epidermidis ATCC 12228; test: MIC determination; type: cell-based; conditions: S. epidermidis ATCC 12228; 18 h
Method: as §1, §2, §3

[10] = system: S. epidermidis ATCC 12228; test: Diffusion-well method, inhibition zones; type: cell-based, Staphylococcus epidermidis; conditions: 500 µg/mL, wells 10 mm
Method: as §1
(§4) 24 hour bacterial cultures with a density of 1–2 × 10^8 CFU mL^−1 were plated (0.1 mL) on Mueller–Hinton Agar (Merck, Germany). Subsequently, wells with a diameter of 10 mm were cut out from and filled with 100 μL of the tested compound at a concentration of 10–500 μg mL^−1 (diluted in DMSO). After an 18-hour incubation at either 30 °C (for Bacillus ssp.) or 37 °C (for other tested microorganisms), the inhibition zones around the wells were measured, and the results were expressed in millimetres (Table S9 ^†).

[11] = system: E. coli ATCC 10530; test: Diffusion-well method, inhibition zones; type: cell-based, Escherichia coli; conditions: 500 µg/mL, wells 10 mm
Method: as §1, §4

## NC(=NN=Cc1ccccc1)c1cncc(Cl)n1.O.O=[N+]([O-])[O-].[Ag+] [Complex 1, AgL1NO3 × H2O]
[1]
  MIC: 50 mg/L
[2]
  MIC: 50 mg/L
[3]
  MIC: 50 mg/L
[4]
  MIC: < 10 mg/L
[5]
  MIC: < 10 mg/L
[6]
  MIC: < 10 mg/L
[6]; listed as 1
  MIC: <10 mg/L
[7]
  MIC: < 10 mg/L
[7]; listed as 1
  MIC: <10 mg/L
[8]
  MIC: < 10 mg/L
[9]
  MIC: 10 mg/L
[10]
  Inhibition zone: 18 mm
[11]
  Inhibition zone: 20 mm
